ChEMBL document CHEMBL5038615, “Discovery of a cinnamyl piperidine derivative as new neddylation inhibitor for gastric cancer treatment” (Eur J Med Chem, 2021)
Activity calls are given as the source filed them. No cut-off for these calls is given here.

Legend:
[1] = system: HGC-27; assay: Induction of apoptosis in human HGC-27 cells assessed as early apoptotic cells at 3 uM measured after 48 hrs by AnnexinV/FITC staining based flow cytometry method (reference value: 5.8%); format: functional
[2] = system: MGC-803; assay: Induction of apoptosis in human MGC-803 cells assessed as necrotic cells at 2.5 uM measured after 24 hrs by AnnexinV/FITC staining based flow cytometry method (reference value: 1.9%); format: functional
[3] = system: HGC-27; assay: Induction of apoptosis in human HGC-27 cells assessed as early apoptotic cells at 3 uM measured after 24 hrs by AnnexinV/FITC staining based flow cytometry method (reference value: 0.7%); format: functional
[4] = system: MGC-803; assay: Induction of apoptosis in human MGC-803 cells assessed as viable cells at 7.5 uM measured after 48 hrs by AnnexinV/FITC staining based flow cytometry method (reference value: 97.4%); format: functional; conditions: read-out: Activity
[5] = system: MGC-803; assay: Cell cycle arrest in human MGC-803 cells assessed as accumulation of cells at S phase at 2.5 uM measured after 24 hrs by Flowcytometry assay (reference value: 36.51%); format: functional
[6] = system: HepG2; assay: Antiproliferative activity against human HepG2 cells assessed as inhibition of cell proliferation measured after 72 hrs by MTT assay; format: functional, cell-based; conditions: HepG2, 72 h
[7] = system: HGC-27; assay: Induction of apoptosis in human HGC-27 cells assessed as late apoptotic cells at 3 uM measured after 48 hrs by AnnexinV/FITC staining based flow cytometry method (reference value: 1%); format: functional
[8] = system: MGC-803; assay: Cell cycle arrest in human MGC-803 cells assessed as accumulation of cells at G2/M phase at 5 uM measured after 24 hrs by Flowcytometry assay (reference value: 13.71%); format: functional
[9] = system: MGC-803; assay: Induction of apoptosis in human MGC-803 cells assessed as reduction of mitochondrial membrane potential at 2.5 uM measured after 24 hrs by JC-1 staining based Flowcytometry assay (reference value: 3.8%); format: functional; design: scale not given: the % may be the effect or the level left
[10] = system: MGC-803; assay: Induction of apoptosis in human MGC-803 cells assessed as upregulation of Bax at 2.5 to 7.5 uM measured after 24 hrs by Western blot assay; format: functional, cell-based; conditions: dose 2.5-7.5 µM
[11] = system: HGC-27; assay: Induction of apoptosis in human HGC-27 cells assessed as necrotic cells at 6 uM measured after 48 hrs by AnnexinV/FITC staining based flow cytometry method (reference value: 0.1%); format: functional
[12] = system: MGC-803; assay: Antitumour activity against human MGC-803 cells xenografted in NOD-SCID mouse assessed as reduction on tumour growth at 100 mg/kg/day, IG measured after 21 days relative to control; format: functional; conditions: MGC-803, po, 504 h, time 21 day, read-out: TGI
[13] = system: MGC-803; assay: Induction of apoptosis in human MGC-803 cells assessed as necrotic cells at 7.5 uM measured after 48 hrs by AnnexinV/FITC staining based flow cytometry method (reference value: 0.2%); format: functional
[14] = system: MGC-803; assay: Induction of apoptosis in human MGC-803 cells assessed as viable cells at 2.5 uM measured after 48 hrs by AnnexinV/FITC staining based flow cytometry method (reference value: 97.4%); format: functional; conditions: read-out: Activity
[15] = system: MGC-803; assay: Induction of apoptosis in human MGC-803 cells assessed as necrotic cells at 5 uM measured after 24 hrs by AnnexinV/FITC staining based flow cytometry method (reference value: 1.9%); format: functional
[16] = system: HGC-27; assay: Induction of apoptosis in human HGC-27 cells assessed as upregulation of Bak at 3 to 9 uM measured after 24 hrs by Western blot assay; format: functional, cell-based; conditions: dose 3-9 µM
[17] = system: MGC-803; assay: Induction of apoptosis in human MGC-803 cells assessed as late apoptotic cells at 2.5 uM measured after 48 hrs by AnnexinV/FITC staining based flow cytometry method (reference value: 0.9%); format: functional
[18] = system: MGC-803; assay: Induction of apoptosis in human MGC-803 cells assessed as late apoptotic cells at 5 uM measured after 24 hrs by AnnexinV/FITC staining based flow cytometry method (reference value: 2%); format: functional
[19] = system: HGC-27; assay: Induction of apoptosis in human HGC-27 cells assessed as ROS levels at 3 uM measured after 24 hrs by DCFH-DA staining based flow cytometry assay (reference value: 6.8%); format: functional
[20] = system: HGC-27; assay: Induction of apoptosis in human HGC-27 cells assessed as early apoptotic cells at 9 uM measured after 24 hrs by AnnexinV/FITC staining based flow cytometry method (reference value: 0.7%); format: functional
[21] = system: HGC-27; assay: Induction of apoptosis in human HGC-27 cells assessed as viable cells at 3 uM measured after 48 hrs by AnnexinV/FITC staining based flow cytometry method (reference value: 93.18%); format: functional; conditions: read-out: Activity
[22] = system: HGC-27; assay: Antiproliferative activity against human HGC-27 cells assessed as cell survival at 7.5 uM preincubated with Z-VAD-FMK followed by compound addition and measured after 24 hrs by MTT assay; format: functional, cell-based
[23] = system: HGC-27; assay: Induction of apoptosis in human HGC-27 cells assessed as early apoptotic cells at 9 uM measured after 48 hrs by AnnexinV/FITC staining based flow cytometry method (reference value: 5.8%); format: functional
[24] = system: MGC-803; assay: Induction of apoptosis in human MGC-803 cells assessed as down-regulation of Nrf2 expression in nucleus at 2.5 to 7.5 uM measured after 24 hrs by Western blot assay; format: functional, cell-based; conditions: dose 2.5-7.5 µM
[25] = system: MGC-803; assay: Cell cycle arrest in human MGC-803 cells assessed as accumulation of cells at G0/G1 phase at 2.5 uM measured after 24 hrs by Flowcytometry assay (reference value: 46.01%); format: functional
[26] = system: MGC-803; assay: Induction of apoptosis in human MGC-803 cells assessed as up-regulation of Nrf2 expression in cytoplasm at 2.5 to 7.5 uM measured after 24 hrs by Western blot assay; format: functional, cell-based; conditions: dose 2.5-7.5 µM
[27] = system: MGC-803; assay: Induction of apoptosis in human MGC-803 cells assessed as down-regulation of Keap1 expression at 2.5 to 7.5 uM measured after 24 hrs by Western blot assay; format: functional, cell-based; conditions: dose 2.5-7.5 µM
[28] = system: HGC-27; assay: Inhibition of cell migration in human HGC-27 cells at 5 uM measured after 48 hrs by wound healing assay based inverted microscopic analysis; format: functional
[29] = system: MGC-803; assay: Induction of apoptosis in human MGC-803 cells assessed as early apoptotic cells at 7.5 uM measured after 24 hrs by AnnexinV/FITC staining based flow cytometry method (reference value: 1.3%); format: functional
[30] = system: HGC-27; assay: Induction of apoptosis in human HGC-27 cells assessed as viable cells at 6 uM measured after 48 hrs by AnnexinV/FITC staining based flow cytometry method (reference value: 93.18%); format: functional; conditions: read-out: Activity
[31] = system: HGC-27; assay: Induction of apoptosis in human HGC-27cells assessed as reduction of mitochondrial membrane potential at 6 uM measured after 24 hrs by JC-1 staining based Flowcytometry assay (reference value: 2.4%); format: functional; design: scale not given: the % may be the effect or the level left
[32] = system: MGC-803; assay: Antiproliferative activity against human MGC-803 cells assessed as cell survival at 7.5 uM pre-incubated with Z-VAD-FMK followed by compound addition and measured after 24 hrs by MTT assay; format: functional, cell-based
[33] = system: HGC-27; assay: Induction of apoptosis in human HGC-27 cells assessed as necrotic cells at 9 uM measured after 24 hrs by AnnexinV/FITC staining based flow cytometry method (reference value: 1.2%); format: functional
[34] = system: MGC-803; assay: Induction of apoptosis in human MGC-803 cells assessed as up-regulation of Nrf2 expression at 2.5 to 7.5 uM measured after 24 hrs by Western blot assay; format: functional, cell-based; conditions: dose 2.5-7.5 µM

Question: With CCCCCc1ccc(NC(=O)C2CCN(C/C=C/c3ccccc3)CC2)cc1 as the compound, how does the Activity [1] read?
Answer: 6.2%

Question: And the Activity [2]?
Answer: 0.8%

Question: And the Activity [3]?
Answer: 7.5%

Question: What about the viability at 7.5 µM [4] of the same compound?
Answer: 0.4%

Question: What about the Activity [5] of the same compound?
Answer: 33.01%

Question: And the IC50 [6]?
Answer: 2890 nM

Question: And the Activity [7]?
Answer: 7%

Question: And the Activity [8]?
Answer: 19.31%

Question: What about the Activity [9] of the same compound?
Answer: 4%

Question: And the Activity [10]?
Answer: Dose-Dependent Effect

Question: And the Activity [11]?
Answer: 0.7%

Question: And the inhibition in vivo at 100 mg/kg/day [12]?
Answer: 39.2%

Question: And the Activity [13]?
Answer: 0%

Question: And the viability at 2.5 µM [14]?
Answer: 50.6%

Question: What about the Activity [15] of the same compound?
Answer: 8.2%

Question: And the Activity [16]?
Answer: Dose-Dependent Effect

Question: What about the Activity [17] of the same compound?
Answer: 43.5%

Question: And the Activity [18]?
Answer: 10.9%

Question: And the Activity [19]?
Answer: 11.4%

Question: And the Activity [20]?
Answer: 2.3%

Question: What about the viability at 3 µM [21] of the same compound?
Answer: 64.4%

Question: What about the Activity [22] of the same compound?
Answer: Active

Question: And the Activity [23]?
Answer: 0.2%

Question: What about the Activity [24] of the same compound?
Answer: Active

Question: And the Activity [25]?
Answer: 48.87%

Question: What about the Activity [26] of the same compound?
Answer: Active

Question: What about the Activity [27] of the same compound?
Answer: Active

Question: And the inhibition at 5 µM [28]?
Answer: 60%

Question: What about the Activity [29] of the same compound?
Answer: 1.7%

Question: What about the viability at 6 µM [30] of the same compound?
Answer: 45.8%

Question: And the Activity [31]?
Answer: 45.3%

Question: What about the Activity [32] of the same compound?
Answer: Active

Question: And the Activity [33]?
Answer: 2.7%

Question: What about the Activity [34] of the same compound?
Answer: Active
